# Key:
# Assay in all cases: relative viability (nuclei count vs DMSO), 5 days (fraction); higher = more cells survive
# CUDC-101 + Alpelisib = compound: C#Cc1cccc(Nc2ncnc3cc(OC)c(OCCCCCCC(=O)NO)cc23)c1 [CUDC-101] + Cc1nc(NC(=O)N2CCC[C@H]2C(N)=O)sc1-c1ccnc(C(C)(C)C(F)(F)F)c1 [Alpelisib] (partner 2 µM)
# In short: (§1)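 Lung cancer cell lines were seeded in 1536-well plates and dosed by pin tool the next day, with either a single drug or a fixed anchor-drug dose combined with five library-drug doses (not always all listed) spaced in √10 steps. Five days later, one step fixed the cells and stained their nuclei (final 0.05% Triton X-100, 1% formaldehyde, 1 ug/ml Hoechst), and nuclei were counted on 4× images. Relative viability is the nuclei count in treated wells divided by the count in vehicle wells, and each value is the median of duplicate plates.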
# [1] = compound: C1=CC=C2C(=C1)N=C(S2)C(C#N)C3=NC(=NC=C3)NCCC4=CN=CC=C4 + C[C@@H](Oc1cc(-c2cnn(C3CCNCC3)c2)cnc1N)c1c(Cl)ccc(F)c1Cl [Crizotinib] (partner 1 µM)
# In short: as §1
# [2] = compound: C1=CC=C2C(=C1)N=C(S2)C(C#N)C3=NC(=NC=C3)NCCC4=CN=CC=C4 + COc1cc2c(Oc3ccc(NC(=O)C4(C(=O)Nc5ccc(F)cc5)CC4)cc3F)ccnc2cc1OCCCN1CCOCC1 [Foretinib] (partner 0.25 µM)
# In short: as §1
# NVP-TAE684 + OSI-027 = compound: COc1cc(N2CCC(N3CCN(C)CC3)CC2)ccc1Nc1ncc(Cl)c(Nc2ccccc2S(=O)(=O)C(C)C)n1 [NVP-TAE684] + COc1cccc2cc(-c3nc([C@H]4CC[C@H](C(=O)O)CC4)n4ncnc(N)c34)[nH]c12 [OSI-027] (partner 0.5 µM)
# In short: as §1
Cell Line,relative viability (CUDC-101 + Alpelisib; first compound 0.01 µM),relative viability (CUDC-101 + Alpelisib; first compound 0.03162 µM),relative viability (CUDC-101 + Alpelisib; first compound 0.1 µM),relative viability (CUDC-101 + Alpelisib; first compound 0.3162 µM),relative viability (CUDC-101 + Alpelisib; first compound 1 µM),relative viability ([1]; first compound 0.005 µM),relative viability ([1]; first compound 0.01581 µM),relative viability ([1]; first compound 0.05 µM),relative viability ([1]; first compound 0.1581 µM),relative viability ([1]; first compound 0.5 µM),relative viability ([2]; first compound 0.005 µM),relative viability ([2]; first compound 0.01581 µM),relative viability ([2]; first compound 0.05 µM),relative viability ([2]; first compound 0.1581 µM),relative viability ([2]; first compound 0.5 µM),relative viability (NVP-TAE684 + OSI-027; first compound 0.2 µM),relative viability (NVP-TAE684 + OSI-027; first compound 0.6325 µM),relative viability (NVP-TAE684 + OSI-027; first compound 2 µM)
EMC-BAC-2,0.759,0.737,0.757,0.741,0.499,0.645,0.769,0.704,0.766,0.581,0.946,1.01,0.994,1.03,1.03,0.364,0.344,0.324
NCI-H1437,1.04,0.886,0.988,0.983,0.679,0.66,1.09,0.932,1.09,0.679,1.26,1.3,1.27,1.32,1.23,0.79,,0.203
NCI-H1944,0.819,0.682,0.799,0.756,0.514,1.15,1.18,1.02,1.12,1.1,0.875,0.91,0.853,0.929,0.885,0.428,0.36,0.278
NCI-H838,1.01,0.89,1.06,1.08,0.914,0.546,0.87,0.817,0.861,0.555,0.981,1.04,0.99,0.928,0.926,0.389,0.324,0.175
HCC-827,0.958,0.27,0.224,0.187,0.179,0.874,0.945,0.907,0.958,0.905,1.06,1.06,1.06,1.16,1.13,0.681,0.743,0.848
NCI-H2342,,,,,,,,,,,0.926,1.17,0.997,1.04,1.17,,0.585,0.34
LOU-NH91,0.652,0.533,0.509,0.574,0.482,0.709,0.786,0.689,0.695,0.685,0.942,0.884,0.863,0.9,0.925,0.746,0.674,0.571
NCI-H3122,0.666,0.83,0.808,0.875,0.969,0.245,0.305,0.279,0.296,0.296,0.839,0.87,0.917,1.05,0.969,0.173,0.127,0.154
NCI-H1563,0.919,0.815,0.925,0.942,0.882,0.86,0.843,0.838,0.814,0.815,0.85,0.922,1.03,0.952,0.914,0.736,0.678,0.596
NCI-H1734,0.754,0.654,0.773,0.813,0.596,0.555,0.734,0.684,0.693,0.741,,0.8,0.913,0.993,0.758,0.679,0.518,0.387
EPLC-272H,0.985,0.887,0.92,0.926,0.845,0.852,0.97,0.868,0.94,0.795,0.588,0.586,0.673,1,0.585,0.227,0.251,0.203
RERF-LC-KJ,0.795,0.835,0.828,0.835,0.742,0.942,0.856,0.819,0.891,0.749,0.966,0.826,0.86,0.882,0.762,0.514,0.448,0.306
EBC-1,0.796,0.709,0.696,0.721,0.319,0.236,0.172,0.189,0.224,0.22,0.123,0.103,0.0991,0.112,0.0984,,,
HARA,0.752,0.661,0.583,0.54,0.225,0.928,1.11,0.957,1.22,0.978,0.869,0.876,0.831,0.975,0.786,0.538,0.351,0.281
NCI-H1651,1.03,0.772,1,0.93,0.817,0.746,0.883,0.855,0.864,0.849,0.687,0.872,0.774,0.801,0.757,0.692,0.79,0.295
NCI-H2405,0.952,0.574,0.87,1.22,0.603,0.819,0.915,0.872,,0.809,1.02,1.04,1.04,1.07,1,0.564,0.613,0.261
NCI-H596,0.463,0.395,0.481,0.465,0.512,0.864,1.03,0.939,1.16,0.952,0.656,0.955,0.741,0.853,0.971,0.903,0.689,0.509
NCI-H2009,1.13,1.1,1.14,1.07,1.04,1,0.991,0.97,1.08,0.976,1.17,1.2,1.18,1.32,1.23,0.603,0.449,0.302
NCI-H2170,0.88,0.744,0.724,0.658,0.47,,1.33,1.1,1.31,1.05,0.731,1.03,0.961,1.04,0.861,0.703,0.579,0.63
NCI-H1648,,,,,,,,,,,,,,,,0.255,0.226,0.216
NCI-H1623,,,,,,,,,,,0.9,0.858,0.769,0.888,0.819,0.337,0.402,0.34

Cell Line,relative viability (CUDC-101 + Alpelisib; first compound 0.01 µM),relative viability (CUDC-101 + Alpelisib; first compound 0.03162 µM),relative viability (CUDC-101 + Alpelisib; first compound 0.1 µM),relative viability (CUDC-101 + Alpelisib; first compound 0.3162 µM),relative viability (CUDC-101 + Alpelisib; first compound 1 µM),relative viability ([1]; first compound 0.005 µM),relative viability ([1]; first compound 0.01581 µM),relative viability ([1]; first compound 0.05 µM),relative viability ([1]; first compound 0.1581 µM),relative viability ([1]; first compound 0.5 µM),relative viability ([2]; first compound 0.005 µM),relative viability ([2]; first compound 0.01581 µM),relative viability ([2]; first compound 0.05 µM),relative viability ([2]; first compound 0.1581 µM),relative viability ([2]; first compound 0.5 µM),relative viability (NVP-TAE684 + OSI-027; first compound 0.2 µM),relative viability (NVP-TAE684 + OSI-027; first compound 0.6325 µM),relative viability (NVP-TAE684 + OSI-027; first compound 2 µM)
LU99A,0.584,0.603,0.518,0.433,0.263,0.457,0.686,0.599,0.599,0.51,0.727,0.853,0.701,0.843,0.789,0.319,0.265,0.239
PC-3 [JPC-3],1.04,0.999,0.775,0.683,0.307,0.712,1.07,1.01,0.948,0.846,0.984,1.12,1.07,1.14,0.961,0.686,0.759,
A549,0.773,0.757,0.605,0.948,0.618,0.539,0.795,0.837,0.705,0.554,,1.03,0.971,1.05,0.728,,,
HCC-44,0.641,0.664,0.771,0.781,0.685,0.753,0.837,0.826,0.875,0.69,,,,,,0.525,0.428,0.218
H3255,0.71,0.552,0.177,0.375,0.136,0.722,0.811,0.911,0.937,0.824,0.988,0.879,0.848,1.09,0.963,0.531,0.602,0.4
LXF-289,0.991,1.08,0.994,1.07,0.815,0.761,0.798,0.831,0.869,0.798,0.898,1.02,0.988,1.01,0.826,0.798,0.808,0.317
PC-14,0.983,0.894,0.62,0.673,0.287,0.856,0.961,0.929,0.972,0.744,0.899,1.05,0.917,1.08,0.819,0.699,0.644,0.185
NCI-H661,0.792,0.609,0.794,0.575,0.595,1.24,1.26,0.99,1.06,0.98,1.07,1.04,0.943,1.03,1.11,0.717,0.821,0.585
EKVX,0.833,0.817,0.849,1.03,0.682,0.775,1.03,0.986,0.895,0.573,0.8,0.833,0.83,0.79,0.777,0.577,0.698,0.521
Calu-6,1.02,0.939,0.986,1,0.763,0.479,0.771,0.831,0.907,0.638,0.875,0.873,0.817,0.884,0.822,,,
NCI-H1703,0.303,,0.322,0.53,0.506,0.666,0.684,0.536,0.542,0.458,0.391,0.37,0.381,0.318,0.336,,,
NCI-H1299,1.08,1,1.11,1.06,1.05,0.943,0.964,0.989,0.95,0.871,1.1,1.1,1.05,1.09,1.09,,,
ChaGo-K-1,,,,,,0.761,,1.2,1.29,1.02,,0.954,0.838,1.06,0.932,0.589,0.546,0.416
NCI-H1650,,,,,,0.609,0.852,0.865,1.01,0.57,1.02,1.38,0.919,1.55,0.787,0.374,0.437,0.217
NCI-H1395,0.993,0.998,1.1,1.18,0.823,,,,,,0.868,0.912,1.05,0.996,0.967,0.712,0.482,0.567
SW 900,,,,,,,,,,,0.63,0.714,0.704,1.02,0.985,0.536,0.425,0.703
NCI-H522,,,,,,,,,,,,,,,,,0.702,0.554
NCI-H1793,0.796,0.41,0.658,0.627,0.546,,,,,,0.714,0.71,0.58,0.775,0.679,0.267,0.274,0.204
IA-LM,0.676,0.769,0.678,0.745,0.388,,0.985,0.922,0.808,0.808,0.691,1.21,1.17,1.24,0.916,,,
NCI-H1792,0.702,0.57,0.695,0.734,0.645,,1.08,0.997,1.33,0.616,,,,,,0.779,0.731,0.818

# — the supplement of paper PMC10307832
